Measured values from PubChem BioAssay AID248 (DTP/NCI, 2004).
Inconclusive results and toxic doses are left out. Rule as the data show it: active = T/C of 150% or more; inactive = T/C below 125%.

Test system: L1210 leukemia ip in BDF1 mice, survival T/C
Test: NCI In Vivo Anticancer Drug Screen. Data for tumor model L1210 Leukemia (intraperitoneal) in B6D2F1 (BDF1) mice
Settings: endpoint: mean survival time, higher = longer survival
How it was run: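 Tumor cells were implanted, animals were treated, and survival was followed. The result divides the treated measurement by the vehicle-control measurement.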

[1] = dose: 150.0 mg/kg/injection, schedule: Q01DX001 (ip), vehicle: saline
[2] = dose: 200.0 mg/kg/injection, schedule: Q01DX001 (ip), vehicle: saline
[3] = dose: 400.0 mg/kg/injection, schedule: Q01DX001 (ip), vehicle: saline
[4] = dose: 100.0 mg/kg/injection, schedule: Q01DX009 (ip), vehicle: saline with Tween-80
[5] = dose: 200.0 mg/kg/injection, schedule: Q01DX009 (ip), vehicle: saline with Tween-80
[6] = dose: 400.0 mg/kg/injection, schedule: Q01DX009 (ip), vehicle: saline with Tween-80
[7] = dose: 100.0 mg/kg/injection, schedule: Q01DX001 (ip), vehicle: saline
[8] = dose: 50.0 mg/kg/injection, schedule: Q01DX001 (ip), vehicle: saline
[9] = dose: 100.0 mg/kg/injection, schedule: Q01DX009 (ip), vehicle: Klucel (hydroxypropylcellulose) (HPC)
[10] = dose: 200.0 mg/kg/injection, schedule: Q01DX009 (ip), vehicle: Klucel (hydroxypropylcellulose) (HPC)
[11] = dose: 400.0 mg/kg/injection, schedule: Q01DX009 (ip), vehicle: Klucel (hydroxypropylcellulose) (HPC)
[12] = dose: 100.0 mg/kg/injection, schedule: Q01DX009 (ip), vehicle: saline
[13] = dose: 100.0 mg/kg/injection, schedule: Q04DX003 (ip), vehicle: saline
[14] = dose: 200.0 mg/kg/injection, schedule: Q01DX009 (ip), vehicle: saline
[15] = dose: 200.0 mg/kg/injection, schedule: Q04DX003 (ip), vehicle: saline
[16] = dose: 400.0 mg/kg/injection, schedule: Q01DX009 (ip), vehicle: saline
[17] = dose: 400.0 mg/kg/injection, schedule: Q04DX003 (ip), vehicle: saline
[18] = dose: 100.0 mg/kg/injection, schedule: Q01DX001 (ip), vehicle: saline with Tween-80
[19] = dose: 200.0 mg/kg/injection, schedule: Q01DX001 (ip), vehicle: saline with Tween-80
[20] = dose: 100.0 mg/kg/injection, schedule: Q04DX003 (ip), vehicle: Klucel (hydroxypropylcellulose) (HPC)
[21] = dose: 200.0 mg/kg/injection, schedule: Q04DX003 (ip), vehicle: Klucel (hydroxypropylcellulose) (HPC)
[22] = dose: 400.0 mg/kg/injection, schedule: Q04DX003 (ip), vehicle: Klucel (hydroxypropylcellulose) (HPC)
[23] = dose: 100.0 mg/kg/injection, schedule: Q04DX002 (ip), vehicle: Klucel (hydroxypropylcellulose) (HPC)
[24] = dose: 200.0 mg/kg/injection, schedule: Q04DX002 (ip), vehicle: Klucel (hydroxypropylcellulose) (HPC)
[25] = dose: 400.0 mg/kg/injection, schedule: Q04DX002 (ip), vehicle: Klucel (hydroxypropylcellulose) (HPC)

Measured: T/C

CC(C)Oc1ccc(C(N)=S)c2ccccc12
inactive: dose: 100.0 mg/kg/injection, schedule: Q01DX001 (ip), vehicle: Klucel (hydroxypropylcellulose) (HPC) 105 % of control | dose: 200.0 mg/kg/injection, schedule: Q01DX001 (ip), vehicle: Klucel (hydroxypropylcellulose) (HPC) 109 % of control | dose: 400.0 mg/kg/injection, schedule: Q01DX001 (ip), vehicle: Klucel (hydroxypropylcellulose) (HPC) 102 % of control

OC1C2C=CC(C2)C1O (centres undefined)
inactive: dose: 44.0 mg/kg/injection, schedule: Q01DX001 (ip), vehicle: saline 96 % of control | dose: 66.0 mg/kg/injection, schedule: Q01DX001 (ip), vehicle: saline 100 % of control | [1] 94 % of control | [2] 106 % of control | [3] 100 % of control

CC(=O)Nc1cc2c(cc1Br)-c1ccc(F)cc1C2
inactive: dose: 200.0 mg/kg/injection, schedule: Q01DX Z (ip), vehicle: saline 98 % of control | dose: 400.0 mg/kg/injection, schedule: Q01DX Z (ip), vehicle: saline 102 % of control | dose: 800.0 mg/kg/injection, schedule: Q01DX Z (ip), vehicle: saline 110 % of control

CC1=C/C(=N\N2CCCCCC2)C(C(O)(C(F)(F)F)C(F)(F)F)C(C)(C)C1 (centres undefined)
inactive: dose: 50.0 mg/kg/injection, schedule: Q01DX009 (ip), vehicle: saline with Tween-80 90 % of control | [4] 96 % of control | [5] 86 % of control | [6] 88 % of control

CC(=O)OC1CC(n2cc(C)c(=O)[nH]c2=O)OC1COC(c1ccccc1)(c1ccccc1)c1ccccc1 (centres undefined)
inactive: dose: 100.0 mg/kg/injection, schedule: Q01DX005 (ip), vehicle: saline 109 % of control | dose: 200.0 mg/kg/injection, schedule: Q01DX005 (ip), vehicle: saline 98 % of control

CCc1ccc(C(=O)O)oc1=O
inactive: dose: 75.0 mg/kg/injection, schedule: Q01DX001 (ip), vehicle: saline 89 % of control | [1] 92 % of control

CCCCNC(N)=O
inactive: dose: 100.0 mg/kg/injection, schedule: Q04DX002 (ip), vehicle: saline 101 % of control | dose: 200.0 mg/kg/injection, schedule: Q04DX002 (ip), vehicle: saline 96 % of control | dose: 400.0 mg/kg/injection, schedule: Q04DX002 (ip), vehicle: saline 92 % of control

CC(C#N)(CCC(=O)O)N=NC(C)(C#N)CCC(=O)O (centres undefined)
inactive: [7] 102 % of control | [2] 103 % of control | [3] 108 % of control

Cc1ccc(N(CCO)CCO)cc1
inactive: [8] 93 % of control | [7] 102 % of control

CC(=O)SCCC(=O)NCNC(=O)CCSC(C)=O
inactive: [4] 96 % of control | dose: 100.0 mg/kg/injection, schedule: Q04DX003 (ip), vehicle: saline with Tween-80 93 % of control | [5] 96 % of control | dose: 200.0 mg/kg/injection, schedule: Q04DX003 (ip), vehicle: saline with Tween-80 93 % of control | [6] 100 % of control | dose: 400.0 mg/kg/injection, schedule: Q04DX003 (ip), vehicle: saline with Tween-80 92 % of control

Cc1ccc(C(C)C)c(OC(=O)NCCCCCCNC(=O)Oc2cc(C)ccc2C(C)C)c1
inactive: [9] 93 % of control | [10] 94 % of control | [11] 98 % of control

O=C1c2ccccc2C(=O)N1[N+](=O)[O-]
inactive: [8] 101 % of control | [7] 107 % of control | [2] 107 % of control | [3] 103 % of control

COc1ccc(C(=NO)c2ccc(OC)cc2)cc1
inactive: [12] 102 % of control | [13] 104 % of control | [14] 102 % of control | [15] 93 % of control | [16] 107 % of control | [17] 95 % of control

CS(=O)(=O)OCCN1C(=O)NC(c2ccccc2)(c2ccccc2)C1=O
inactive: [7] 94 % of control | [12] 97 % of control | [13] 107 % of control | [2] 94 % of control | [14] 96 % of control | [15] 93 % of control | [3] 100 % of control | [16] 97 % of control | [17] 101 % of control

Nc1ccccc1Sc1ccc(Br)cc1[N+](=O)[O-]
inactive: dose: 37.5 mg/kg/injection, schedule: Q04DX003 (ip), vehicle: saline 98 % of control | dose: 75.0 mg/kg/injection, schedule: Q04DX003 (ip), vehicle: saline 102 % of control | dose: 150.0 mg/kg/injection, schedule: Q04DX003 (ip), vehicle: saline 93 % of control

CCCCCCCCC1CCC2C3CCC4CC(C(=O)O)C(C(=O)O)CC4(C)C3CCC12C (centres undefined)
inactive: [18] 86 % of control | [19] 87 % of control

CC(=O)OC1c2sccc2Cc2ccsc21
inactive: [18] 91 % of control | [19] 105 % of control

O=C(Oc1ccccc1)Oc1c(Cl)cc([N+](=O)[O-])cc1[N+](=O)[O-]
inactive: [20] 100 % of control | [21] 100 % of control | [22] 93 % of control

O=C(CS)NNC(=O)CS
inactive: [23] 93 % of control | [13] 104 % of control | [24] 96 % of control | [15] 110 % of control | [25] 104 % of control | [17] 86 % of control

CC(=O)NC1CC(CO)C(O)C1O (centres undefined)
inactive: [7] 107 % of control | [2] 90 % of control | [3] 101 % of control

O=C1C=C(c2c(O)ccc3ccccc23)c2ccccc2C1=O
inactive: dose: 50.0 mg/kg/injection, schedule: Q01DX001 (ip), vehicle: carboxymethylcellulose (CMC) 96 % of control | dose: 100.0 mg/kg/injection, schedule: Q01DX001 (ip), vehicle: carboxymethylcellulose (CMC) 100 % of control | dose: 200.0 mg/kg/injection, schedule: Q01DX001 (ip), vehicle: carboxymethylcellulose (CMC) 96 % of control | dose: 400.0 mg/kg/injection, schedule: Q01DX001 (ip), vehicle: carboxymethylcellulose (CMC) 110 % of control

CNC(=O)n1cnc(N)n1 (tested in a mixture with another compound)
inactive: [9] 96 % of control | [10] 103 % of control

O=C(CCCNC(=O)OCc1ccccc1)NCCCCCCNCCCCCCNC(=O)CCCNC(=O)OCc1ccccc1
inactive: [8] 95 % of control | [7] 95 % of control | [2] 98 % of control | [3] 98 % of control

O=C(O)/C=C\C(=O)Nc1ccccc1[N+](=O)[O-]
inactive: [23] 90 % of control | [24] 114 % of control | [25] 104 % of control

Cc1ccc2[nH]c(O)c(N=Nc3ccccc3[N+](=O)[O-])c2c1
inactive: [7] 90 % of control | [2] 93 % of control

CC(=O)OC1CCC2(C)C(CCC3C2C(=O)C(OC(C)=O)C2(C)C3CC3OC4(CCC(C)CO4)C(C)C32)C1 (centres undefined)
inactive: [4] 90 % of control | [5] 95 % of control | [6] 101 % of control

O=C(Nc1ccccc1Cl)N(Cc1ccccc1)c1ccccc1
inactive: [9] 99 % of control | [20] 96 % of control | [10] 91 % of control | [21] 94 % of control | [11] 94 % of control | [22] 96 % of control
